# Results: patent US9815831B2, “3,5-disubstituted-3H-imidazo[4,5-B]pyridine and 3,5-disubstituted-3H-[1,2,3]triazolo[4,5-B] pyridine compounds as modulators of c-Met protein kinases” (Rhizen Pharmaceuticals SA, priority 2012, dated 2017)
# Structures can show the parent of a compound that is named as a salt. Where two headings read alike, the source gives them in different places.
# Experiments:
# [1] = target: T1, human recombinant Met kinase (Homo sapiens, UniProt P08581); test: Colorimetric determination of c-Met kinase activity (HTScan Met Kinase Assay Kit); assay type: biochemical; conditions: for inhibition: cells marked *: tested @ 300 nM, read-out: c-Met Enzyme % inhibition; for inhibition at 0.1 µM: 100 nM (cells without *), read-out: c-Met Enzyme % inhibition @ 100 nM
# T1 construct: purchased Cell Signalling Technology, Beverly, Mass
# From the text: 1. MET Kinase Assay Protocol:
# Colorimetric Determination of c-Met Kinase Activity
# The receptor tyrosine kinase c-Met is a heterodimeric transmembrane glycoprotein involved in several cellular processes that aid in tumor progression. Phosphorylation of the tyrosine residues in the c-Met kinase domain is critical for its activity and the resulting down-stream effects. The colorimetric assay allows detection of the phosphorylated form of a biotinylated peptide upon activation of human recombinant Met kinase.
# MET Kinase Assay Protocol:
# c-Met Kinase activity shall be determined using an HTScan® Met Kinase Assay Kit (Cell Signalling Technology, Beverly, Mass.) with modifications. All incubations are carried out at room temperature. Briefly, 12.5 μl of a 4× reaction cocktail (DTT/Kinase buffer containing appropriate quantity of human Met kinase) is added to each well of a 96-well plate containing 12.5 μl pre-diluted compound of interest and incubated for 5 minutes. After the initial incubation, 25 μl/well of 2×ATP/biotinylated peptide is added and incubated for an additional 30 minutes. The reaction is terminated by the addition of 50 μl/well stop buffer (50 mM EDTA, pH 8.0). The reaction mixture (25 μl/well) is then transferred to a streptavidin coated plate (Perkin Elmer, Cat#4009-0010) containing 75 μl dH2O and incubated for 60 minutes. The plate is washed with 200 μl/well wash buffer (1×PBS, 0.05% Tween-20). After washing, 100 μl/well phospho-tyrosine mAb (1:1000 in wash buffer containing 1% BSA) is added and incubated for 60 minutes. After another round of washes, 100 μl/well europium labelled anti-mouse IgG (1:500 in wash buffer containing 1% BSA) is added and incubated for an additional 30 minutes. Following additional washes, 100 μl/well Delfia^(R) enhancement solution (Perkin Elmer, Cat#1244-105) is added and incubated for 45 minutes. Florescence is measured on a microplate reader (BMG Labtech., Germany) at 340 nm (excitation) and 615 nm (emission) for calculating % inhibition. Data generated can be analyzed further using Graphpad Prism (Graphpad software, San Diego Calif.) for determination of IC50.
# Results: The results are as given below in Table 4A, 4B and 4C as % Inhibition or IC50 of c-Met
# MKN-45 = test: Inhibition of MKN-45 proliferation (MTT); assay type: cell-based, human; conditions: MKN-45 proliferation; for GI50: read-out: MKN45 GI50
# Description: 3. Inhibition of MKN-45 Proliferation:
# Cell proliferation assays were carried out using the high Met expressing human gastric adenocarcinoma cell line, MKN-45, according to the following schedule: • Day 1: Cells were plated in 96-well plates in complete growth medium. • Day 2: Compounds at desired concentrations were added. • Day 5: Cell viability was determined using the 3-[4,5-dimethylthiazol-2-yl]-2,5-diphenyltetrazolium bromide (MTT) dye reduction test. Results: The results are as given as % Inhibition of MKN-45 proliferation at 100 nM and GI50 values in Table 4A to 4C above. 4. Inhibition of c-Met Kinase Phosphorylation in MKN-45 Cells: […]
# T1 sequence (P08581 25-1390): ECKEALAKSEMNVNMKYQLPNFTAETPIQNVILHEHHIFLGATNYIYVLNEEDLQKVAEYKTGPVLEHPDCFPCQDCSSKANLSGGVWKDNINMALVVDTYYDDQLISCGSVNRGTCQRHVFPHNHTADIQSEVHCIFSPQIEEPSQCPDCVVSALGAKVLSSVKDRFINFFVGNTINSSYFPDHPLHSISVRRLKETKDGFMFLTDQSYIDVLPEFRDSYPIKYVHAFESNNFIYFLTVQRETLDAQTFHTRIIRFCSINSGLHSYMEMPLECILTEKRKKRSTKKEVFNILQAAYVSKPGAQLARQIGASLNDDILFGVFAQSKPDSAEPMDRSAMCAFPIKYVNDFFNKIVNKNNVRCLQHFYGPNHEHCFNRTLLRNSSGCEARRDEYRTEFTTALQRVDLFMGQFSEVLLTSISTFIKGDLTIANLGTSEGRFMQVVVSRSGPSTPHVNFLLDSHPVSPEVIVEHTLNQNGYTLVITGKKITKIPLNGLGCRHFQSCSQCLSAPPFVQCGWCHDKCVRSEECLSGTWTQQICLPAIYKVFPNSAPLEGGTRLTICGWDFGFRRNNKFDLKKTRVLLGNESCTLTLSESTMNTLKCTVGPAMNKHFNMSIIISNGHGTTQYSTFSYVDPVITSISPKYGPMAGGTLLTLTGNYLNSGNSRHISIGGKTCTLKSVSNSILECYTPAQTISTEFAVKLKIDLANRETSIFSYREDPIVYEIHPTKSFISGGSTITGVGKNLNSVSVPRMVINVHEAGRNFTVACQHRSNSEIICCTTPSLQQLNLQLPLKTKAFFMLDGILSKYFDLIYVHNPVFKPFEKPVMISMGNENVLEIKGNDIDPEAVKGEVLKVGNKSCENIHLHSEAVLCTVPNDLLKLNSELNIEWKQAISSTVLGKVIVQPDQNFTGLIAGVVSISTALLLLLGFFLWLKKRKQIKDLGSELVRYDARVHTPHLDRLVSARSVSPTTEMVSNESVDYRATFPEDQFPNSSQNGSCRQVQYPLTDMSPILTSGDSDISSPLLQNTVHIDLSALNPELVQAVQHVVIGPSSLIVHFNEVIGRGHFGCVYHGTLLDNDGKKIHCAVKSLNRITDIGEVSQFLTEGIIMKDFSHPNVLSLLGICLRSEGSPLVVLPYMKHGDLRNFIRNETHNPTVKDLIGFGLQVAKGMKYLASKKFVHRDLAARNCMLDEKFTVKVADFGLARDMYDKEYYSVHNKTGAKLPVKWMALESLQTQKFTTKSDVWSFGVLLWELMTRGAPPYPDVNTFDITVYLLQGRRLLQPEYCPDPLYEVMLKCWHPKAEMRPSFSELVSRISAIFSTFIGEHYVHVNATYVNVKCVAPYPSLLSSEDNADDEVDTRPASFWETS
compound,measurement,setting,value
"CCNC(=S)N/N=C(\C)c1ccc2nnn(Cc3ccc4ncccc4c3)c2n1 [Example 55, N-ethyl-2-(1-(3-(quinolin-6-ylmethyl)-3H-[1,2,3]triazolo[4,5-b]pyridin-5-yl)ethylidene)hydrazinecarbothioamide]",inhibition,[1]; Table 4A,< 25%
"CNC(=O)CNC(=O)c1ccc(-c2ccc3nnn(Cc4ccc5ncccc5c4)c3n2)cc1 [Example 2, N-(2-(methylamino)-2-oxoethyl)-4-(3-(quinolin-6-ylmethyl)-3H-[1,2,3]triazolo[4,5-b]pyridin-5-yl)benzamide]",GI50,"MKN-45; Homo sapiens, MKN-45, Table 4A",100 to 250 nM
"Cl.O=C(NOCCO)c1c(F)cc(-c2ccc3nnn(Cc4cc5cccnc5cc4F)c3n2)cc1F [Example 9a, 2,6-difluoro-4-(3-((7-fluoroquinolin-6-yl)methyl)-3H-[1,2,3]triazolo[4,5-b]pyridin-5-yl)-N-(2-hydroxyethoxy)benzamide hydrochloride]",MKN45 % inhibition @ 100 nM,MKN-45; Table 4A,A (A= ≧75 to 100%)
same,GI50,"MKN-45; Table 4A, hydrochloride",25 to 50 nM
"O=C1NCc2cc(-c3ccc4nnn(Cc5ccc6ncccc6c5)c4n3)ccc21 [Example 1032, 5-(3-Quinolin-6-ylmethyl-3H-[1,2,3]triazolo[4,5-b]pyridin-5-yl)-2,3-dihydro-isoindol-1-one]",inhibition at 0.1 µM,[1]; Table 4C,75 to 100%
"CN(C)CCNC(=O)c1ccc(-c2ccc3ncn(Cc4ccc5ncccc5c4)c3n2)cc1Cl [Example 101, 2-chloro-N-(2-(dimethylamino)ethyl)-4-(3-(quinolin-6-ylmethyl)-3H-imidazo[4,5-b]pyridin-5-yl)benzamide]",inhibition,[1]; Table 4B,< 25%
NC(=O)c1ccc(-c2ccc3nnn(Cc4cc5ccc[n+]([O-])c5cc4F)c3n2)cc1Cl [Example 1002],inhibition at 0.1 µM,[1]; Table 4C,< 25%
"Cc1cc(-c2ccc3nnn(Cc4ccc5ncccc5c4)c3n2)ccc1C(=O)NOC[C@H](C)O [Example 36, (S)—N-(2-hydroxypropoxy)-2-methyl-4-(3-(quinolin-6-ylmethyl)-3H-[1,2,3]triazolo[4,5-b]pyridin-5-yl)benzamide]",inhibition at 0.1 µM,[1]; Table 4A,75 to 100%
"CC(C)(O)CONC(=O)c1ccc(-c2ccc3ncn(Cc4ccc5ncccc5c4)c3n2)cc1Cl [Example 114, 2-Chloro-N-(2-hydroxy-2-methyl-propoxy)-4-(3-quinolin-6-ylmethyl-3H-imidazo[4,5-b]pyridin-5-yl)-benzamide]",inhibition at 0.1 µM,[1]; Table 4B,75 to 100%
"Cl.O=C(NOCCO)c1ccc(-c2ccc3nnn(Cc4cc5cccnc5cc4F)c3n2)cc1Cl [Example 7a, 2-chloro-4-(3-((7-fluoroquinolin-6-yl)methyl)-3H-[1,2,3]triazolo[4,5-b]pyridin-5-yl)-N-(2-hydroxyethoxy)benzamide hydrochloride]",MKN45 % inhibition @ 100 nM,MKN-45; Table 4A,A (A= ≧75 to 100%)
"NC(=O)c1c(F)cc(-c2ccc3nnn(Cc4ccc5[nH]c(=O)ccc5c4)c3n2)cc1F [Example 1005, 2,6-difluoro-4-(3-((2-oxo-1,2-dihydroquinolin-6-yl)methyl)-3H-[1,2,3]triazolo[4,5-b]pyridin-5-yl)benzamide]",inhibition at 0.1 µM,[1]; Table 4C,< 25%
"O=C1NCc2cc(-c3ccc4ncn(Cc5ccc6ncccc6c5)c4n3)ccc21 [Example 1033, 5-(3-Quinolin-6-ylmethyl-3H-imidazo[4,5-b]pyridin-5-yl)-2,3-dihydro-isoindol-1-one]",inhibition at 0.1 µM,[1]; Table 4C,< 25%
"O=C(NOCCO)c1ccc(-c2ccc3ncn(Cc4ccc5ncccc5c4)c3n2)cc1Cl [Example 113, 2-Chloro-N-(2-hydroxy-ethoxy)-4-(3-quinolin-6-ylmethyl-3H-imidazo[4,5-b]pyridin-5-yl)-benzamide]",inhibition at 0.1 µM,[1]; Table 4B,75 to 100%
"NC(=O)N/N=C(\N)c1ccc2nnn(Cc3ccc4ncccc4c3)c2n1 [Example 52, 2-(amino(3-(quinolin-6-ylmethyl)-3H-[1,2,3]triazolo[4,5-b]pyridin-5-yl)methylene)hydrazinecarboxamide]",inhibition,[1]; Table 4A,< 25%
"C/C(=N\N1CC(=O)NC1=O)c1ccc2nnn(Cc3ccc4ncccc4c3)c2n1 [Example 54, (E/Z)-1-(1-(3-(quinolin-6-ylmethyl)-3H-[1,2,3]triazolo[4,5-b]pyridin-5-yl)ethylideneamino)imidazolidine-2,4-dione]",inhibition,[1]; Table 4A,25 to 50%
"Cc1cc(-c2ccc3nnn(Cc4ccc5[nH]c(=O)ccc5c4)c3n2)ccc1C(=O)NOCCO [Example 25d, N-(2-hydroxyethoxy)-2-methyl-4-(3-((2-oxo-1,2-dihydroquinolin-6-yl)methyl)-3H-[1,2,3]triazolo[4,5-b]pyridin-5-yl) benzamide]",inhibition at 0.1 µM,[1]; Table 4A,< 25%
"Cc1cc(-c2ccc3nnn(Cc4ccc5ncccc5c4)c3n2)ccc1C(=O)NOCCOC(=O)c1ccccc1 [Example 46, 2-(2-methyl-4-(3-(quinolin-6-ylmethyl)-3H-[1,2,3]triazolo[4,5-b]pyridin-5-yl)benzamidooxy)ethyl benzoate]",inhibition at 0.1 µM,[1]; Table 4A,75 to 100%
"NC(=O)c1ccc(-c2ccc3nnn(Cc4ccc5[nH]c(=O)ccc5c4)c3n2)cc1Cl [Example 1004, 2-chloro-4-(3-((2-oxo-1,2-dihydroquinolin-6-yl)methyl)-3H-[1,2,3]triazolo[4,5-b]pyridin-5-yl)benzamide]",inhibition,[1]; Table 4C,< 25%
"NC(=O)c1c(F)cc(-c2ccc3ncn(Cc4ccc5ncccc5c4)c3n2)cc1F [Example 1010, 2,6-difluoro-4-(3-(quinolin-6-ylmethyl)-3H-imidazo[4,5-b]pyridin-5-yl) benzamide]",inhibition,[1]; Table 4C,< 25%
"Cc1cc(-c2ccc3nnn(Cc4ccc5ncccc5c4)c3n2)ccc1C(=O)NOCCOC(=O)C(C)C [Example 44, 2-(2-methyl-4-(3-(quinolin-6-ylmethyl)-3H-[1,2,3]triazolo[4,5-b]pyridin-5-yl)benzamidooxy)ethyl isobutyrate]",inhibition at 0.1 µM,[1]; Table 4A,75 to 100%
"NC(=O)c1c(F)cc(-c2ccc3nnn(Cc4ccc5c(ccc[n+]5[O-])c4)c3n2)cc1F [Example 1001, 6-((5-(4-carbamoyl-3,5-difluorophenyl)-3H-[1,2,3]triazolo[4,5-b]pyridin-3-yl)methyl)quinoline 1-oxide]",inhibition at 0.1 µM,[1]; Table 4C,< 25%
"C/C(=N\OCCNC(N)=O)c1ccc2nnn(Cc3ccc4ncccc4c3)c2n1 [Example 64, 1-(2-(1-(3-(quinolin-6-ylmethyl)-3H-[1,2,3]triazolo[4,5-b]pyridin-5-yl)ethylideneaminooxy)ethyl)urea]",inhibition at 0.1 µM,[1]; Table 4A,50 to 75%
"Cc1cc(-c2ccc3nnn(Cc4ccc5ncccc5c4)c3n2)ccc1C(=O)NOCCO [Example 25a, N-(2-hydroxyethoxy)-2-methyl-4-(3-(quinolin-6-ylmethyl)-3H-[1,2,3]triazolo[4,5-b]pyridin-5-yl)benzamide hydrochloride]",MKN45 % inhibition @ 100 nM,"MKN-45; Table 4A, hydrochloride, 0.1 µM",B (B = ≧50-<75%)
"Cc1cc(-c2ccc3nnn(Cc4ccc5ncccc5c4)c3n2)ccc1C(=O)NOCCOC(=O)c1ccco1 [Example 47, 2-(2-methyl-4-(3-(quinolin-6-ylmethyl)-3H-[1,2,3]triazolo[4,5-b]pyridin-5-yl)benzamidooxy)ethyl furan-2-carboxylate]",inhibition at 0.1 µM,[1]; Table 4A,75 to 100%
"Cc1cc(-c2ccc3nnn(Cc4ccc5ncccc5c4)c3n2)ccc1C(=O)NO [Example 42, N-Hydroxy-2-methyl-4-(3-quinolin-6-ylmethyl-3H-[1,2,3]triazolo[4,5-b]pyridin-5-yl)-benzamide]",inhibition at 0.1 µM,[1]; Table 4A,75 to 100%
"CCNC(=O)c1ccc(-c2ccc3ncn(Cc4ccc5ncccc5c4)c3n2)cc1Cl [Example 1013, 2-chloro-N-ethyl-4-(3-(quinolin-6-ylmethyl)-3H-imidazo[4,5-b]pyridin-5-yl)benzamide]",inhibition,[1]; Table 4C,< 25%
"Cl.O=C(NOCCO)c1c(F)cc(-c2ccc3nnn(Cc4ccc5ncccc5c4)c3n2)cc1F [Example 8a, 2,6-difluoro-N-(2-hydroxyethoxy)-4-(3-(quinolin-6-ylmethyl)-3H-[1,2,3]triazolo[4,5-b]pyridin-5-yl)benzamide hydrochloride]",MKN45 % inhibition @ 100 nM,MKN-45; Table 4A,C (C = ≧25-<50%)
